We go through one compound from publication PMC8105715, “Modeling of full-length Piezo1 suggests importance of the proximal N-terminus for dome structure” (Biophysical Journal, 2021).

The IC50 is the concentration needed to halve the response being measured.

The test deals with T1, human Piezo1 (Homo sapiens, UniProt Q92508).
T1 construct: stably expressed in HEK 293 TREx cells, tetracycline-inducible (P1 HEK TREx); homotrimer
As to the kind of experiment: fura-2 intracellular Ca2+ plate-reader assay, inhibition of Yoda1-evoked response. In kind it is cell-based. The following applies: unreliable (estimated; limited solubility); 5 uM Yoda1; cells pretreated 30 min at 37 C with cholesterol-MbetaCD complex; nominal bath concentration; site not shown, may act through membrane; pH 7.4.

T1 sequence (Q92508 whole entry): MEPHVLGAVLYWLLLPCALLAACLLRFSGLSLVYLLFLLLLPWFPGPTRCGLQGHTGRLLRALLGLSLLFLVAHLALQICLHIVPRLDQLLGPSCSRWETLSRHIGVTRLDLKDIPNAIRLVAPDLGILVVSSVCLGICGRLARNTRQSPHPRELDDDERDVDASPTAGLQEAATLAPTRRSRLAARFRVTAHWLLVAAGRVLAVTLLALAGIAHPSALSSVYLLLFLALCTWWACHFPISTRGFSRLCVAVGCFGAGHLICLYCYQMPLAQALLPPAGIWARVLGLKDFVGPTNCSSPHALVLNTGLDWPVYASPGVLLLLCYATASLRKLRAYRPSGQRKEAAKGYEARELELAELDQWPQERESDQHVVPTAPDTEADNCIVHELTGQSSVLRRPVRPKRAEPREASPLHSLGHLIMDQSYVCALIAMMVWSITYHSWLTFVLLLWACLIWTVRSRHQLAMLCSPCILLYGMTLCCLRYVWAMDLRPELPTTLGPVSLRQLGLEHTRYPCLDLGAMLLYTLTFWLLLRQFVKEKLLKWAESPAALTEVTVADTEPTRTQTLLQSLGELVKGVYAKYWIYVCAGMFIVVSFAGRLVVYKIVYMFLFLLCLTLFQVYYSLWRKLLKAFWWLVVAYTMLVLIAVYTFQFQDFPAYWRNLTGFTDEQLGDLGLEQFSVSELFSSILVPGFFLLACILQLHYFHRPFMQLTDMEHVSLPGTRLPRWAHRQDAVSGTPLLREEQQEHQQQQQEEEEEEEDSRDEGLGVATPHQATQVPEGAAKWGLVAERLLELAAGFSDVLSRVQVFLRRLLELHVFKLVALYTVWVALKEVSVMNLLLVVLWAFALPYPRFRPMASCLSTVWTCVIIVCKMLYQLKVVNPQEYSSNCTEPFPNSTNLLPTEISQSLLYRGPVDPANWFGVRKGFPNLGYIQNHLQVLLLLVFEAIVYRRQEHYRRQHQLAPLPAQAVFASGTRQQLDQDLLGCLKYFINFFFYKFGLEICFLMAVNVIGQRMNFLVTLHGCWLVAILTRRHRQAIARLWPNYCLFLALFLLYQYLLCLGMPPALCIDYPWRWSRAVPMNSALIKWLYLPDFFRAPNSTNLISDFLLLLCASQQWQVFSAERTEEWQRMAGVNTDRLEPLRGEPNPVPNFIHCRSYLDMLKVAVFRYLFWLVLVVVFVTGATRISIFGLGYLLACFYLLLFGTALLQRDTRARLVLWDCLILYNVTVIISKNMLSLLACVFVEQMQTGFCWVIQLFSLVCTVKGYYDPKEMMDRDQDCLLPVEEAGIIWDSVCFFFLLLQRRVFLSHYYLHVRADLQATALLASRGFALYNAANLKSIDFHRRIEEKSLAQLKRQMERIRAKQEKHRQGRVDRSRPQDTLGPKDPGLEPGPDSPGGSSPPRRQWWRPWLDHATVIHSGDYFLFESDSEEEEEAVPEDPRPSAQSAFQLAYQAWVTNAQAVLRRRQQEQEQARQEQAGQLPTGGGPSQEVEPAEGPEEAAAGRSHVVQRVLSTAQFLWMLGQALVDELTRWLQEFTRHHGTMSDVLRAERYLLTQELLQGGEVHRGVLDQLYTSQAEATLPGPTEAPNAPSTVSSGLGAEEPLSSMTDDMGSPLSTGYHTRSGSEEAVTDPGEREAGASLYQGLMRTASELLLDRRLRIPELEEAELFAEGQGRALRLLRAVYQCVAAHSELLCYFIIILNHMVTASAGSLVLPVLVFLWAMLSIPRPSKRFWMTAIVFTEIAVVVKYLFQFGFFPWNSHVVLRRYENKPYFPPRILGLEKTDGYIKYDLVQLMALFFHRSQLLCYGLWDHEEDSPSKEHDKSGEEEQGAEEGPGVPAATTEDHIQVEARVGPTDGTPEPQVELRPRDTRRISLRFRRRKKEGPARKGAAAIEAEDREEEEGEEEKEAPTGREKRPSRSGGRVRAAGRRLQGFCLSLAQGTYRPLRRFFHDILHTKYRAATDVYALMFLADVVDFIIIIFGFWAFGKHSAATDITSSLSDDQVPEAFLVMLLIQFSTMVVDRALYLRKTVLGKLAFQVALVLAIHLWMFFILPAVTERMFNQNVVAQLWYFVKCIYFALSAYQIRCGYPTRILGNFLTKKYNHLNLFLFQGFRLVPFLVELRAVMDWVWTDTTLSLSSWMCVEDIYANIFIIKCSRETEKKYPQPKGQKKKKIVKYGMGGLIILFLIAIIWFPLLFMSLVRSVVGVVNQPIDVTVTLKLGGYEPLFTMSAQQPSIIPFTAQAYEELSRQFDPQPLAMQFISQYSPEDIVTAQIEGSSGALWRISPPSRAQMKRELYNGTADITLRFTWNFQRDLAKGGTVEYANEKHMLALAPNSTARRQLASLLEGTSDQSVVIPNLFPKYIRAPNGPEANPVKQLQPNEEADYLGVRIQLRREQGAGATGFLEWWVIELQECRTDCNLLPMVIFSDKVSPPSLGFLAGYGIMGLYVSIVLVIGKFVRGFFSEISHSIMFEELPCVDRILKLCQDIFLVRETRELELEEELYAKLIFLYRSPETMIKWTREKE

`CC(C)CCC[C@@H](C)[C@H]1CC[C@H]2[C@@H]3CC=C4C[C@@H](O)CC[C@]4(C)[C@H]3CC[C@]12C` [cholesterol]: the IC50 was 150 µM.
